# According to US20200181153A1, “IMIDAZOPYRIDAZINONE COMPOUNDS AND USES THEREOF” (Aduro Biotech, Inc., priority 2018, published 2020):
# Assays:
# Human cGAS = target: T1, Human cGAS (Homo sapiens, UniProt Q8N884); experiment: cGAS biochemical activity assay (ATP levels by Kinase-Glo Max luminescence); settings: human cGAS amino acids 155-522, 25 nM, activated by 1 μM double stranded DNA, 37° C. for 1.25 hours
# T1 construct: hexahistidine tag (N, cleaved yes); made in house; host or cells: E. coli BL21 DE3 Rosetta 2
# Method: Human cGAS sequence encoding amino acids 155-522 was cloned into a pET (EMD Millipore) based expression plasmid. The resulting construct contained a tandem N-terminal hexahistidine tag, maltose binding protein fusion followed by a tobacco etch virus protease cleavable linker preceding cGAS amino acids 155-522.
# Protein was expressed and purified from E. coli BL21 DE3 Rosetta 2 (EMD Millipore) cells using standard techniques. Cells were grown in 2× yeast extract tryptone medium and expression was initiated via the addition of isopropyl β-D-1-thiogalactopyranoside. Expression proceeded overnight at 18° C. Cells were harvested by centrifugation and subsequently […] via sonication. Insoluble fraction was removed by centrifugation. Maltose binding protein (MBP) fusion proteins were purified on a dextrin sepharose column (GE Healthcare) and the MBP tag was removed using tobacco etch virus protease overnight during dialysis. Protein was further purified on a heparin column (GE Healthcare) and eluted using a NaCl gradient. Column fraction were pooled and further purified on a Superdex 75 gel filtration column (GE Healthcare). Protein was quantified using 280 nm absorbance. Protein was then flash frozen in liquid nitrogen and stored at −80° C., until use.
# Potential antagonists were diluted in 100% dimethyl sulfoxide and added to the reaction. Final dimethyl sulfoxide concentration was 5%. The compounds were tested from 250 μM with 5-fold serial dilutions down to 0.000128 μM.
# Two complementary DNA oligos (IDT DNA) were annealed by slow cooling from 95° C. The resulting double stranded DNA was used to activate cGAS.
# Reactions were performed at 37° C., for 1.25 hours. Reaction buffer: 20 mM Tris HCl pH 9, 100 mM NaCl, 5 mM MgCl2, 0.1 mg/ml bovine gamma globulin, 1 mM adenosine triphosphate, 250 μM guanosine triphosphate, 0.5 mM Tris(2-carboxyethyl)phosphine hydrochloride, 1 μM double stranded DNA and 25 nM purified cGAS protein.
# Reactions were stopped and ATP levels in the reaction were measured using a luciferase based assay. Promega Kinase-Glo Max Assay. Luminescence was measured on a plate reader (Molecular Devices). Values were normalized to control wells lacking compound.
# cGAS/STING pathway = experiment: THP1 cell-based cGAS/STING pathway activity assay (luciferase reporter linked to IRF-3 activation); settings: Homo sapiens, THP-1
# Source text: (§1) A cellular assay can be used to assess the compounds of the invention for their ability to inhibit the cGAS/STING pathway. Cells that express a luciferase-based reporter that is linked to IRF-3 activation are used to determine response as a function of compound concentration. Such an assay is described in Vincent et al., Nature Communications 2017, 8(1):750, doi: 10.1038/s41467-017-00833-9.
# as §1, with “10.1038/s41467-017-00833-9. Compounds of the invention were assessed using similar assay methods in a THP1 cell assay to generate IC50 values.” for “10.1038/s41467-017-00833-9.”
# T1 sequence (Q8N884 157-522): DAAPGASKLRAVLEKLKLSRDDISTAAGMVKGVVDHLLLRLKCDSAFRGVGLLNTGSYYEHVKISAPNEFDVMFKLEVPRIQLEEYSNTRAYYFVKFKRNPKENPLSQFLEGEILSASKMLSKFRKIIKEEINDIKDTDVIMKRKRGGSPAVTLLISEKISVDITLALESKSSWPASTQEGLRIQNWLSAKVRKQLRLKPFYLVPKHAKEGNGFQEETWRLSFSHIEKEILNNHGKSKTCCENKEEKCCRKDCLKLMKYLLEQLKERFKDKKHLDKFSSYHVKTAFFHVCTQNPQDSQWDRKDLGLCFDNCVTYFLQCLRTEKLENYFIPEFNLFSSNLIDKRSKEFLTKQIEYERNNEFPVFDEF
IC50 (Human cGAS),IC50 (cGAS/STING pathway),Structure (SMILES)
< 1000 nM,,"Cc1cc(=O)c2nc(C#N)c(-c3ccccc3)n2[nH]1 [Compound 3, 6-methyl-8-oxo-3-phenyl-5,8-dihydroimidazo[1,2-b]pyridazine-2-carbonitrile]"
< 1000 nM,< 10000 nM,"COc1cccc(-c2c(C)[nH]n3c(-c4ccccc4)c(C#N)nc3c2=O)c1 [Compound 5, 7-(3-methoxyphenyl)-6-methyl-8-oxo-3-phenyl-5,8-dihydroimidazo[1,2-b]pyridazine-2-carbonitrile]"
< 1000 nM,< 10000 nM,"Cc1[nH]n2c(-c3ccccc3)c(C#N)nc2c(=O)c1-c1cccc(Cl)c1 [Compound 6, 7-(3-chlorophenyl)-6-methyl-8-oxo-3-phenyl-5,8-dihydroimidazo[1,2-b]pyridazine-2-carbonitrile]"
< 1000 nM,< 10000 nM,"CCc1ccc(-c2c(C)[nH]n3c(-c4ccccc4)c(C#N)nc3c2=O)cc1 [Compound 13, 7-(4-ethylphenyl)-6-methyl-8-oxo-3-phenyl-5,8-dihydroimidazo[1,2-b]pyridazine-2-carbonitrile]"
